According to US11192888B2, “Antibacterial compounds” (priority 2017, dated 2021):
In brackets after ≈: the same amount, converted by molar mass. Read-outs that look alike come from different tables or passages of the source. *1 amine or outer side, *2 acyl side, *3 side chain or, on linkers, in order; H or OH if unused. Where a SMILES comes first, the peptide text is derived from it. [ ]: non-standard residue; d: D form. dAla(ψthiazole) = C[C@@H](N[*:1])c1nc(C(=O)[*:2])cs1; Trp(4-Cl) = N[C@@H](Cc1c[nH]c2cccc(Cl)c12)C(=O)O; Dhb = C/C=C(\N)C(=O)O; Sar = CNCC(=O)O

Tests used:
[1] = test system: P. aeruginosa clinical strains and PAO1 (wild-type strain); experiment: Antibiotic sensitivity of P. aeruginosa clinical strains and PAO1 (MIC); format: cell-based, Pseudomonas aeruginosa
Excerpt: In this regard, four clinical isolates of P. aeruginosa were obtained from the University of Nottingham.

[2] = amide bond, 24-membered ring, PyBOP/HOBt/DIPEA, 0.5 mM
[3] = test system: Clostridium difficile strains (21 clinical, 7 reference)

## Colistin
[1]; strain PAO1
  MIC of antibiotic: 3 µM
[1]; strain W4
  MIC of antibiotic: 3 µM
[1]; strain W14
  MIC of antibiotic: >8 µM
[1]; strain W23
  MIC of antibiotic: 2 µM
[1]; strain W46
  MIC of antibiotic: 2 µM

## NC[C@H]1O[C@H](O[C@H]2[C@H](O)[C@@H](O[C@H]3O[C@H](CO)[C@@H](O)[C@H](N)[C@H]3O)[C@H](N)C[C@@H]2N)[C@H](N)C[C@@H]1O [Tobramycin]
[1]; strain PAO1
  MIC of antibiotic: <4 µM
[1]; strain W4
  MIC of antibiotic: 9 µM
[1]; strain W14
  MIC of antibiotic: 25 µM
[1]; strain W23
  MIC of antibiotic: <4 µM
[1]; strain W46
  MIC of antibiotic: <4 µM

## C/C=C1\NC(=O)[C@@H](C)NC(=O)CNC(=O)[C@H](Cc2c[nH]c3cccc(Cl)c23)NC(=O)[C@H](Cc2c[nH]c3ccccc23)NC(=O)c2csc(n2)[C@@H](C)NC(=O)CN(C)C1=O [Cyclo[D-Ala-Thz-Trp-Trp(4-Cl)-Gly-D-Ala-Dhb-Sar]]
[2]; from H-dAla-Thz-Trp-Trp(4-Cl)-Gly-dAla-Dhb-Sar-OH?
  ring closure, yield after HPLC: 5%

## C=C1NC(=O)[C@@H](C)NC(=O)CNC(=O)[C@H](Cc2c[nH]c3cccc(OC)c23)NC(=O)[C@H](Cc2c[nH]c3ccccc23)NC(=O)c2csc(n2)[C@@H](C)NC(=O)CN(C)C1=O [Cyclo[D-Ala-Thz-Trp-Trp(4-MeO)-Gly-D-Ala-Dha-Sar]]
[2]; from H-dAla-Thz-Trp-Trp(4-MeO)-Gly-dAla-Dha-Sar-OH?
  ring closure, yield after HPLC: 11%

## CC(C)=C1NC(=O)[C@@H](C)NC(=O)CNC(=O)[C@H](Cc2c[nH]c3cccc(Br)c23)NC(=O)[C@H](Cc2c[nH]c3ccccc23)NC(=O)c2csc(n2)[C@@H](C)NC(=O)CN(C)C1=O [Cyclo[D-Ala-Thz-Trp-Trp(4-Br)-Gly-D-Ala-Dhv-Sar]]
[2]; from H-dAla-Thz-Trp-Trp(4-Br)-Gly-dAla-Dhv-Sar-OH?
  ring closure, yield after HPLC: 42%

## C=C1NC(=O)[C@@H](C)NC(=O)CNC(=O)[C@H](Cc2c[nH]c3cccc(Br)c23)NC(=O)[C@H](Cc2c[nH]c3ccccc23)NC(=O)c2csc(n2)[C@@H](C)NC(=O)CN(C)C1=O [Cyclo[D-Ala-Thz-Trp-Trp(4-Br)-Gly-D-Ala-Dha-Sar]]
[2]; from H-dAla-Thz-Trp-Trp(4-Br)-Gly-dAla-Dha-Sar-OH?
  ring closure, yield after HPLC: 7%

## NCC[C@H](O)C(=O)N[C@@H]1C[C@H](N)[C@@H](O[C@H]2O[C@H](CN)[C@@H](O)[C@H](O)[C@H]2O)[C@H](O)[C@H]1O[C@H]1O[C@H](CO)[C@@H](O)[C@H](N)[C@H]1O [Amikacin]
[1]; strain PAO1
  MIC of antibiotic: <14 µM
[1]; strain W4
  MIC of antibiotic: 24 µM
[1]; strain W14
  MIC of antibiotic: 41 µM
[1]; strain W23
  MIC of antibiotic: <14 µM
[1]; strain W46
  MIC of antibiotic: <14 µM

## C[C@H]1NC(=O)CNC(=O)[C@H](Cc2c[nH]c3cccc(Br)c23)NC(=O)[C@H](Cc2c[nH]c3ccccc23)NC(=O)c2csc(n2)[C@@H](C)NC(=O)CN(C)C(=O)/C(=C/c2ccccc2)NC1=O [Cyclo[D-Ala-Thz-Trp-Trp(4-Br)-Gly-D-Ala-Dhp-Sar]]
[2]; from H-dAla-Thz-Trp-Trp(4-Br)-Gly-dAla-Dhp-Sar-OH?
  ring closure, yield after HPLC: 35%

## C/C=C1\NC(=O)[C@@H](C)NC(=O)CNC(=O)[C@H](Cc2c[nH]c3cccc(Br)c23)NC(=O)[C@H](Cc2c[nH]c3ccccc23)NC(=O)c2csc(n2)[C@@H](COC)NC(=O)CN(C)C1=O [Cyclo[D-Ser(OMe)-Thz-Trp-Trp(4-Br)-Gly-D-Ala-Dhb-Sar]]
[2]; from H-dSer(OMe)-Thz-Trp-Trp(4-Br)-Gly-dAla-Dhb-Sar-OH?
  ring closure, yield after HPLC: 19%

## C=C1NC(=O)[C@@H](C)NC(=O)CNC(=O)[C@H](Cc2c[nH]c3cccc(C(F)(F)F)c23)NC(=O)[C@H](Cc2c[nH]c3ccccc23)NC(=O)c2csc(n2)[C@@H](C)NC(=O)CN(C)C1=O [Cyclo[D-Ala-Thz-Trp-Trp(4-CF3)-Gly-D-Ala-Dha-Sar]]
[2]; from H-dAla-Thz-Trp-Trp(4-CF3)-Gly-dAla-Dha-Sar-OH?
  ring closure, yield after HPLC: 6%

## C=C1NC(=O)[C@@H](C)NC(=O)CNC(=O)[C@H](Cc2c[nH]c3cccc(F)c23)NC(=O)[C@H](Cc2c[nH]c3ccccc23)NC(=O)c2csc(n2)[C@@H](C)NC(=O)CN(C)C1=O [Cyclo[D-Ala-Thz-Trp-Trp(4-F)-Gly-D-Ala-Dha-Sar]]
[2]; from H-dAla-Thz-Trp-Trp(4-F)-Gly-dAla-Dha-Sar-OH?
  ring closure, yield after HPLC: 2%

## CC(C)/C=C1\NC(=O)[C@@H](C)NC(=O)CNC(=O)[C@H](Cc2c[nH]c3cccc(Br)c23)NC(=O)[C@H](Cc2c[nH]c3ccccc23)NC(=O)c2csc(n2)[C@@H](C)NC(=O)CN(C)C1=O [Cyclo[D-Ala-Thz-Trp-Trp(4-Br)-Gly-D-Ala-Dhl-Sar]]
[2]; from H-dAla-Thz-Trp-Trp(4-Br)-Gly-dAla-Dhl-Sar-OH?
  ring closure, yield after HPLC: 35%

## C=C1NC(=O)[C@@H](C)NC(=O)CNC(=O)[C@H](Cc2c[nH]c3ccccc23)NC(=O)[C@H](Cc2c[nH]c3ccccc23)NC(=O)c2csc(n2)[C@@H](C)NC(=O)CN(C)C1=O [Cyclo(D-Ala-D-Thiazole-L-Trp-L-Trp-Gly-D-Ala-Dha-Sar)]
[2]; from H-dAla-Thz-Trp-Trp-Gly-dAla-Dha-Sar-OH?, DCM
  ring closure, yield after HPLC: 7%

## C[C@@H](O)[C@H]1C(=O)N2C(C(=O)O)=C(S[C@@H]3CN[C@H](C(=O)N(C)C)C3)[C@H](C)[C@H]12 [Meropenem]
[1]; strain PAO1
  MIC of antibiotic: >45 µM
[1]; strain W4
  MIC of antibiotic: >45 µM
[1]; strain W14
  MIC of antibiotic: 9 µM
[1]; strain W23
  MIC of antibiotic: >45 µM
[1]; strain W46
  MIC of antibiotic: 14 µM

## C=C1NC(=O)[C@@H](C)NC(=O)CNC(=O)[C@H](Cc2c[nH]c3cccc(Br)c23)NC(=O)[C@H](Cc2c[nH]c3ccccc23)NC(=O)c2csc(n2)[C@@H](COC)NC(=O)CN(C)C1=O [Cyclo[D-Ser(OMe)-Thz-Trp-Trp(4-Br)-Gly-D-Ala-Dha-Sar]]
[2]; from H-dSer(OMe)-Thz-Trp-Trp(4-Br)-Gly-dAla-Dha-Sar-OH?
  ring closure, yield after HPLC: 6%

## C=C1NC(=O)[C@@H](C)NC(=O)CNC(=O)[C@H](Cc2c[nH]c3cccc(Cl)c23)NC(=O)[C@H](Cc2c[nH]c3ccccc23)NC(=O)c2csc(n2)[C@@H](CO)NC(=O)CN(C)C1=O [Cyclo[D-Ser-Thz-Trp-Trp(4-C1)-Gly-D-Ala-Dha-Sar]]
[2]; from H-dSer-Thz-Trp-Trp(4-Cl)-Gly-dAla-Dha-Sar-OH?
  ring closure, yield after HPLC: 4%

## Gentamicin
[1]; strain PAO1
  MIC of antibiotic: <4 µM
[1]; strain W4
  MIC of antibiotic: 8 µM
[1]; strain W14
  MIC of antibiotic: 8 µM
[1]; strain W23
  MIC of antibiotic: <4 µM
[1]; strain W46
  MIC of antibiotic: <4 µM

## C[C@H]1[C@H](NC(=O)/C(=N\OC(C)(C)C(=O)O)c2csc(N)n2)C(=O)N1S(=O)(=O)O [Aztreonam]
[1]; strain PAO1
  MIC of antibiotic: <9 µM
[1]; strain W4
  MIC of antibiotic: 18 µM
[1]; strain W14
  MIC of antibiotic: >92 µM
[1]; strain W23
  MIC of antibiotic: <9 µM
[1]; strain W46
  MIC of antibiotic: <9 µM

## C[C@H]1NC(=O)CNC(=O)[C@H](Cc2c[nH]c3cccc(Cl)c23)NC(=O)[C@H](Cc2c[nH]c3ccccc23)NC(=O)c2csc(n2)[C@@H](C)NC(=O)CN(C)C(=O)[C@H]([C@@H](C)O)NC1=O [Cyclo[D-Ala-Thz-Trp-Trp(4-Cl)-Gly-D-Ala-Thr-Sar]]
[2]; from H-dAla-Thz-Trp-Trp(4-Cl)-Gly-dAla-Thr-Sar-OH?
  ring closure, yield after HPLC: 14%

## C/C=C1\NC(=O)[C@@H](C)NC(=O)CNC(=O)[C@H](Cc2c[nH]c3cccc(Br)c23)NC(=O)[C@H](Cc2c[nH]c3ccccc23)NC(=O)c2csc(n2)[C@@H](C)NC(=O)CN(C)C1=O [Cyclo[D-Ala-Thz-Trp-Trp(4-Br)-Gly-D-Ala-Dhb-Sar]]
[2]; from H-dAla-Thz-Trp-Trp(4-Br)-Gly-dAla-Dhb-Sar-OH?
  ring closure, yield after HPLC: 35%

## C/C=C1\NC(=O)[C@@H](C)NC(=O)CNC(=O)[C@H](Cc2c[nH]c3cccc(Cl)c23)NC(=O)[C@H](Cc2c[nH]c3ccccc23)NC(=O)c2csc(n2)[C@@H](C)NC(=O)CN(C)C1=O [Compound 9, Cyclo[D-Ala-Thz-Trp-Trp(4-Cl)-Gly-D-Ala-Dhb-Sar]] (cyclo([Dhb][Sar][dAla(ψthiazole)]W[Trp(4-Cl)]G[dA]))
[3]; 28 C. difficile strains
  MIC40: 0.5 µg/mL (≈ 0.593 µM)
  MIC50: 0.50 µg/mL (≈ 0.593 µM)
  MIC90: 0.50 µg/mL (≈ 0.593 µM)
[3]; C. difficile strain 630 (ribotype 012)
  MIC: 0.25 µg/mL (≈ 0.296 µM)
[3]; C. difficile strain ATCC 9689 (ribotype 001)
  MIC: 0.5 µg/mL (≈ 0.593 µM)
[3]; C. difficile strain ATCC 13366
  MIC: 1 µg/mL (≈ 1.19 µM)
[3]; C. difficile strain ATCC 43255
  MIC: 0.25 µg/mL (≈ 0.296 µM)
[3]; C. difficile strain ATCC 700057 (ribotype 038)
  MIC: 0.25 µg/mL (≈ 0.296 µM)
[3]; C. difficile strain ATCC BAA 1875 (ribotype 078)
  MIC: 0.5 µg/mL (≈ 0.593 µM)
[3]; C. difficile strain BI1-FDX^R
  MIC: 0.25 µg/mL (≈ 0.296 µM)
[3]; C. difficile strain Clin. 1
  MIC: 0.5 µg/mL (≈ 0.593 µM)
[3]; C. difficile strain Clin. 2
  MIC: 0.5 µg/mL (≈ 0.593 µM)
[3]; C. difficile strain Clin. 3
  MIC: 0.25 µg/mL (≈ 0.296 µM)
[3]; C. difficile strain Clin. 5
  MIC: 0.5 µg/mL (≈ 0.593 µM)
[3]; C. difficile strain Clin. 6
  MIC: 0.5 µg/mL (≈ 0.593 µM)
[3]; C. difficile strain Clin. 7
  MIC: 0.5 µg/mL (≈ 0.593 µM)
[3]; C. difficile strain Clin. 8
  MIC: 0.5 µg/mL (≈ 0.593 µM)
[3]; C. difficile strain Clin. 9
  MIC: 0.5 µg/mL (≈ 0.593 µM)
[3]; C. difficile strain Clin. 10
  MIC: 0.5 µg/mL (≈ 0.593 µM)
[3]; C. difficile strain Clin. 11
  MIC: 0.5 µg/mL (≈ 0.593 µM)
[3]; C. difficile strain Clin. 12
  MIC: 0.5 µg/mL (≈ 0.593 µM)
[3]; C. difficile strain Clin. 13
  MIC: 0.5 µg/mL (≈ 0.593 µM)
[3]; C. difficile strain Clin. 14
  MIC: 0.5 µg/mL (≈ 0.593 µM)
[3]; C. difficile strain Clin. 15
  MIC: 0.5 µg/mL (≈ 0.593 µM)
[3]; C. difficile strain Clin. 16
  MIC: 0.25 µg/mL (≈ 0.296 µM)
[3]; C. difficile strain Clin. 18
  MIC: 0.5 µg/mL (≈ 0.593 µM)
[3]; C. difficile strain Clin. 20
  MIC: 0.5 µg/mL (≈ 0.593 µM)
[3]; C. difficile strain Clin. 21
  MIC: 0.5 µg/mL (≈ 0.593 µM)
[3]; C. difficile strain Clin. 22
  MIC: 0.5 µg/mL (≈ 0.593 µM)
[3]; C. difficile strain Clin. 23
  MIC: 0.5 µg/mL (≈ 0.593 µM)
[3]; C. difficile strain Clin. 24
  MIC: 0.5 µg/mL (≈ 0.593 µM)
